Reference: patent EP0802184B1, “N-Benzyl-2-phenylindoles as estrogenic agents” (Wyeth, priority 1996, dated 1997)

Experiments:
[1] = system: Ishikawa cells; assay: Ishikawa Cell Alkaline Phosphatase Assay; type: cell-based, human; conditions: 48 h; for % Activation (Compound + 1 nM 17β-estradiol): 10^-6 M compound + 10^-9 M 17β-estradiol; for % Activation: compound alone, percent of response related to 1 nM 17β-estradiol
Protocol: Cells were treated for 48 h prior to assay. […] Sample population for at each dose was n=8. […] Plates are placed at -80°C for a minimum of 15 minutes. Plates are thawed at 37°C followed by the addition of 150μL of 0.1 M Tris-HCl, pH 9.8, containing 4 mM para-nitrophenylphosphate (pNPP) to each well (final concentration, 3 mM pNPP). Absorbance and slope calculations were made using the […] Application program (Bio-Tek Instruments, Inc., Winooski, VT). […] Various compounds were assayed for estrogenic activity by the alkaline phosphatase method and corresponding ED50 values (95% C.I.) were calculated. The four listed in the following were used as reference standards: A description of such methods is provided by Holinka, […]., Kuramoto, H. and Gurpide, E. (1986) Effects of steroid hormones and antisteroids on alkaline phosphatase activity in human endometrial cancer cells (Ishikawa Line). Cancer Research, 46:2771-2774, and by […]. and by […] simple and sensitive microtiter plate estrogen bioassay based on stimulation alkaline phosphatase in Ishikawa cells; […] Endocrinology, 6:2757-2762.

[2] = target: T1, estrogen receptor (Homo sapiens, UniProt P03372); assay: 2X VIT ERE Transfection Assay (Infection Luciferase Assay); type: cell-based; conditions: 24 h; for % Activation with 1 nM 17β-estradiol: 1 uM compound + 1 nM 17β-estradiol (test for estrogen antagonism); for % Activation: compound alone (1 uM), compared to 17β-estradiol
T1 sequence (P03372 1-595): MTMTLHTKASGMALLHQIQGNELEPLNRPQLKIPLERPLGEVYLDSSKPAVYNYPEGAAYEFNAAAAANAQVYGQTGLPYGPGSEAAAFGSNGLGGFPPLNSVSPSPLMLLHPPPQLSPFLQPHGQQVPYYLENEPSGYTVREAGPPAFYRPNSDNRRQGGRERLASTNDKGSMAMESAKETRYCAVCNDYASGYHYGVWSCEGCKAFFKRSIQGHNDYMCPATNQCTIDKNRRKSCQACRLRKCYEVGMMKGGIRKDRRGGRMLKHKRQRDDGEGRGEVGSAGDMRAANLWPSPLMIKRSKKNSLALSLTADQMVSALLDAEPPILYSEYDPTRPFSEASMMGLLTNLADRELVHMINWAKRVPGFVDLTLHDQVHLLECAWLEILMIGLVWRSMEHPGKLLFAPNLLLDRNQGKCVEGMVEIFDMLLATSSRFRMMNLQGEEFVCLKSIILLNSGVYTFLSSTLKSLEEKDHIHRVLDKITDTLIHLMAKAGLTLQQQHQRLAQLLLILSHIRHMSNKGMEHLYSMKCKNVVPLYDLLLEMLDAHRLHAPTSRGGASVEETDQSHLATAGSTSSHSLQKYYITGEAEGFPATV
Protocol: Chinese Hamster Ovary cells (CHO) which had been stably transfected with the human estrogen receptor were maintained in DMEM + 10% fetal bovine serum (FBS). 48h prior to treatment the growth medium was replaced with DMEM lacking phenol red + 10% dextran coated charcoal stripped FBS (treatment medium). Cells were plated at a density of 5000 cells/well in 96-well plates containing 200 µL of medium/well.
Reporter DNA (Promega plasmid pGL2 containing two tandem copies of the vitellogenin ERE in front of the minimal thymidine kinase promoter driving the luciferase gene) was combined with the B-galactosidase expression plasmid pCH110 (Pharmacia) and carrier DNA (pTZ18U) in the following ratio: • 10uG of reporter DNA • 5uG of pCH110DNA • 5 uG of pTZ18U • 20 uG of DNA/1 mL of transfection solution
20 uL of this mixture was added to each well of cells and remained on the cells for 16 h. […] Each treatment condition was performed on 8 wells (n=8) which were incubated for 24 h prior to the luciferase assay.
After removing the PBS, 25 uL of Promega lysis buffer was added to each well and allowed to stand at room temperature for 15 min, followed by 15 min at -80°C and 15 min at 37°C. 20 uL of lysate was transferred to an opaque 96 well plate for luciferase activity evaluation and the remaining lysate (5 uL) was used for the B-galactosidase activity evaluation (normalize transfection). The luciferan substrate (Promega) was added in 100 uL aliquots to each well automatically by the luminometer and the light produced (relative light units) was read 10 seconds after addition.
To the remaining 5 uL of lysate 45 uL of PBS was added. Then 50 uL of Promega B-galactosidase 2X assay buffer was added, mixed well and incubated at 37°C for 1 hour. A plate containing a standard curve (0.1 to 1.5 milliunits in triplicate) was set up for each experimental run. The plates were analyzed on a Molecular Devices spectrophotometric plate reader at 410 nm. The optical densities for the unknown were converted to milliunits of activity by mathematical extrapolation from the standard curve.
The luciferase data was generated as relative light units (RLUs) accumulated during a 10 second measurement and automatically transferred to a JMP (SAS Inc) file where background RLUs were subtracted. The B-galactosidase values were automatically imported into the file and these values were divided into the RLUs to normalize the data. The mean and standard deviations were determined from a n=8 for each treatment. […] These techniques are described by Tzukerman, M.T., Esty, A., Santiso-Mere, D., Danielian, P., Parker, M.G., Stein, R.B., Pike, J.W. and McDonnel, D.P. (1994). Human estrogen receptor transactivational capacity was determined by both cellular and promoter context and mediated by two functionally distinct intramolecular regions (see Molecular Endocrinology, 8:21-30).

[3] = target: T1, estrogen receptor; assay: In vitro estrogen receptor binding assay (competition with [3H]-17β-estradiol); design: expressed in transfected cells; host or cells: CHO cells (ribosome-free cytosol); conditions: relative to 17β-estradiol=100; cytosol of CHO cells overexpressing the estrogen receptor
Protocol: CHO cells overexpressing the estrogen receptor were grown in 150 mm^2 dishes in DMEM + 10% dextran coated charcoal, stripped fetal bovine serum. The plates were washed twice with PBS and once with 10mM Tris-HCl, pH 7.4, 1mM EDTA. Cells were harvested by scraping the surface and then the cell suspension was placed on ice. Cells were disrupted with a hand-held motorized tissue grinder using two, 10-second bursts. The crude preparation was centrifuged at 12,000g for 20 minutes followed by a 60 minute spin at 100,000g to produce a ribosome free cytosol. The cytosol was then frozen and stored at -80°C. Protein concentration of the cytosol was estimated using the BCA assay with reference standard protein.
100uG/100uL of the receptor preparation was aliquoted per well. […] The plate was incubated at room temperature for 2.5 h. At the end of this incubation period 150 uL of ice-cold dextran coated charcoal (5% activated charcoal coated with 0.05% 69K dextran) was added to each well and the plate was immediately centrifuged at 99g for 5 minutes at 4°C. 200 uL of the supernatant solution was then removed for scintillation counting. Samples were counted to 2% or 10 minutes, whichever occurs first. […] Also, wells containing radioactivity but no cytosol were processed with charcoal to estimate unremovable DPM of [^3H]
Counts per minute (CPM) of radioactivity were automatically converted to disintegrated per minute (DPM) by the Beckman LS 7500 Scintillation Counter using a set of quenched standards to generate a H# for each sample.
For the generation of IC50 curves, % binding is plotted vs compound. […] For a description of these methods, see Hulme, E.C., ed. 1992. Receptor-Ligand Interactions: A Practical Approach. IRL Press, New York.(see especially chapter 8).

Row | SMILES | % Activation (Compound + 1 nM 17β-estradiol) [1] [%] | % Activation [1] [%] | % Activation with 1 nM 17β-estradiol [2] [%] | % Activation [2] [%] | Estrogen Receptor Affinity (reported as RBA: 17β-estradiol=100) [3]
1 | CNC(=O)/C=C/c1ccc(Cn2c(-c3ccc(O)cc3)c(C)c3cc(O)ccc32)cc1 [Example 15, (E)-N, Methyl-3-{4-[5-hydroxy-2-(4-hydroxy-phenyl)-3-methyl-indol-1-ylmethyl]-phenyl}-acrylamide] | 5 | 0 | 31 | 15 | 53
2 | Cc1c(-c2ccc(O)cc2)n(Cc2ccc(C#CCN(C)C)cc2)c2ccc(O)cc12 [Example 21, 2-(4-Hydroxy-phenyl)-3-methyl-1-[4-(3-N, N-dimethyl-1-yl-prop-1-ynyl)-benzyl]-1H-indol-5-ol] | 34 | 34 | 34 | 34 | 53
3 | Cc1c(-c2ccc(O)cc2)n(Cc2ccc(C#CCN3CCCCC3)cc2)c2ccc(O)cc12 [Example 22, 2-(4-Hydroxy-phenyl)-3-methyl-1-[4-(3-piperidin-1-yl-prop-1-ynyl)-benzyl]-1H-indol-5-ol] | 23 | 27 | 19 | 17 | 23
